Measured values: patent US9200008B2 (ASKA PHARMACEUTICAL CO., LTD., priority 2010, dated 2015)

System: Human prostate cancer cell lines (PC-3 cells)
Assay: Measurement of cell death-inducing activity (Test Example 1)
Assay type: cell-based
Conditions: PC-3, 48 h, 48 hours after addition, tested at 10, 1, 0.1, 0.025 and 0.00625 μmol/L, qualitative evaluation of 10 fields, read-out: Concentration showing the cell death-inducing activity (cell death-inducing rate not less than 40%)
Method: The cell death-inducing activity of the compound represented by the formula (1) or the salt thereof was measured as follows.
Human prostate cancer cell lines (PC-3 cells) were seeded to 6-well plates at 1×10^5 cells/2 mL/well, and cultured in the presence of 5% CO2 at 37° C. for 48 hours. Thereafter, each compound was added thereto so as to provide 10, 1, 0.1, 0.025 and 0.00625 μmol/L. As a control, DMSO was added. After the addition, the cells were continuously cultured for 48 hours. […] When the cell death-inducing rate was not less than 40%, the compound was judged to have the cell death-inducing activity.

SMILES | minimal effective concentration
COc1ccccc1-c1nc(C)c(NC(=O)OCc2ccc(SC)cc2)s1 [Example 9-5] | 10 µM
COc1cc(Cl)ccc1-c1nc(C)c(NC(=O)OCc2ccc3c(c2)CCO3)s1 [Example 9-7] | 10 µM
Cc1ccc(-c2nc(C)c(NC(=O)OCc3ccc4c(c3)CCO4)s2)c(C)c1 [Example 9-8] | 10 µM
COc1cc(Cl)ccc1-c1nc(C)c(NC(=O)OCc2cccc(N(C)C)c2)s1 [Example 9-11] | 10 µM
Cc1ccccc1-c1nc(C)c(NC(=O)OCc2ccc3c(c2)nnn3C)s1 [Example 9-12] | 1 µM
COc1ccccc1-c1nc(C)c(NC(=O)OCc2ccc3c(c2)nnn3C)s1 [Example 9-13] | 0.025 µM
COc1cc(F)ccc1-c1nc(C)c(NC(=O)OCc2ccc3c(c2)nnn3C)s1 [Example 9-14] | 0.025 µM
COc1cc(Cl)ccc1-c1nc(C)c(NC(=O)OCc2ccc3c(c2)nnn3C)s1 [Example 9-15] | 0.00625 µM
COc1cc(C)ccc1-c1nc(C)c(NC(=O)OCc2ccc3c(c2)nnn3C)s1 [Example 9-16] | 0.00625 µM
Cc1ccc(-c2nc(C)c(NC(=O)OCc3ccc4c(c3)nnn4C)s2)c(C)c1 [Example 9-17] | 0.025 µM
Cc1nc(-c2ccc(F)cc2Cl)sc1NC(=O)OCc1ccc2c(c1)nnn2C [Example 9-18] | 0.1 µM
Cc1cc(F)ccc1-c1nc(C)c(NC(=O)OCc2ccc3c(c2)nnn3C)s1 [Example 9-19] | 0.025 µM
Cc1cc(Cl)ccc1-c1nc(C)c(NC(=O)OCc2ccc3c(c2)nnn3C)s1 [Example 9-20] | 0.025 µM
Cc1nc(-c2cccc3c2OCC3)sc1NC(=O)OCc1ccc2c(c1)nnn2C [Example 9-21] | 10 µM
CCn1nnc2cc(COC(=O)Nc3sc(-c4ccccc4OC)nc3C)ccc21 [Example 9-22] | 0.025 µM
CCn1nnc2cc(COC(=O)Nc3sc(-c4ccc(F)cc4OC)nc3C)ccc21 [Example 9-23] | 0.025 µM
CCn1nnc2cc(COC(=O)Nc3sc(-c4ccc(Cl)cc4OC)nc3C)ccc21 [Example 9-24] | 0.00625 µM
CCn1nnc2cc(COC(=O)Nc3sc(-c4ccc(C)cc4C)nc3C)ccc21 [Example 9-26] | 0.025 µM
CCn1nnc2cc(COC(=O)Nc3sc(-c4ccc(F)cc4C)nc3C)ccc21 [Example 9-27] | 0.025 µM

SMILES | minimal effective concentration
CCn1nnc2cc(COC(=O)Nc3sc(-c4ccc(Cl)cc4C)nc3C)ccc21 [Example 9-28] | 0.025 µM
COc1ccccc1-c1nc(C)c(NC(=O)OCc2ccc3c(ccn3C)c2)s1 [Example 9-29] | 10 µM
COc1cc(Cl)ccc1-c1nc(C)c(NC(=O)OCc2ccc3c(ccn3C)c2)s1 [Example 9-30] | 1 µM
Cc1cc(Cl)ccc1-c1nc(C)c(NC(=O)OCc2ccc3c(ccn3C)c2)s1 [Example 9-31] | 1 µM
Cc1nc(-c2ccccc2)sc1NC(=O)OCc1ccc2c(c1)ncn2C [Example 9-32] | 1 µM
Cc1ccccc1-c1nc(C)c(NC(=O)OCc2ccc3c(c2)ncn3C)s1 [Example 9-33] | 0.025 µM
Cc1ccc(-c2nc(C)c(NC(=O)OCc3ccc4c(c3)ncn4C)s2)cc1 [Example 9-35] | 0.1 µM
CCc1ccccc1-c1nc(C)c(NC(=O)OCc2ccc3c(c2)ncn3C)s1 [Example 9-36] | 0.025 µM
COc1ccccc1-c1nc(C)c(NC(=O)OCc2ccc3c(c2)ncn3C)s1 [Example 9-37] | 0.025 µM
COc1cc(F)ccc1-c1nc(C)c(NC(=O)OCc2ccc3c(c2)ncn3C)s1 [Example 9-38] | 0.00625 µM
COc1cc(Cl)ccc1-c1nc(C)c(NC(=O)OCc2ccc3c(c2)ncn3C)s1 [Example 9-39] | 0.00625 µM
COc1cc(C)ccc1-c1nc(C)c(NC(=O)OCc2ccc3c(c2)ncn3C)s1 [Example 9-40] | 0.00625 µM
COc1ccc(-c2nc(C)c(NC(=O)OCc3ccc4c(c3)ncn4C)s2)c(OC)c1 [Example 9-41] | 0.025 µM
Cc1ccc(-c2nc(C)c(NC(=O)OCc3ccc4c(c3)ncn4C)s2)c(C)c1 [Example 9-42] | 0.00625 µM
Cc1nc(-c2ccccc2F)sc1NC(=O)OCc1ccc2c(c1)ncn2C [Example 9-43] | 1 µM
Cc1nc(-c2cccc(F)c2)sc1NC(=O)OCc1ccc2c(c1)ncn2C [Example 9-44] | 1 µM
Cc1nc(-c2ccc(F)cc2)sc1NC(=O)OCc1ccc2c(c1)ncn2C [Example 9-45] | 1 µM
Cc1nc(-c2ccc(F)cc2F)sc1NC(=O)OCc1ccc2c(c1)ncn2C [Example 9-46] | 0.1 µM
Cc1nc(-c2ccc(F)cc2Cl)sc1NC(=O)OCc1ccc2c(c1)ncn2C [Example 9-47] | 0.025 µM

SMILES | minimal effective concentration
Cc1cc(F)ccc1-c1nc(C)c(NC(=O)OCc2ccc3c(c2)ncn3C)s1 [Example 9-48] | 0.00625 µM
Cc1cc(Cl)ccc1-c1nc(C)c(NC(=O)OCc2ccc3c(c2)ncn3C)s1 [Example 9-49] | 0.00625 µM
Cc1nc(-c2ccc3c(c2)CCO3)sc1NC(=O)OCc1ccc2c(c1)ncn2C [Example 9-50] | 10 µM
CCn1cnc2cc(COC(=O)Nc3sc(-c4ccccc4C)nc3C)ccc21 [Example 9-53] | 0.1 µM
CCn1cnc2cc(COC(=O)Nc3sc(-c4cccc(C)c4)nc3C)ccc21 [Example 9-54] | 1 µM
CCn1cnc2cc(COC(=O)Nc3sc(-c4ccc(C)cc4)nc3C)ccc21 [Example 9-55] | 10 µM
CCc1ccccc1-c1nc(C)c(NC(=O)OCc2ccc3c(c2)ncn3CC)s1 [Example 9-56] | 0.025 µM
CCn1cnc2cc(COC(=O)Nc3sc(-c4ccc(F)cc4OC)nc3C)ccc21 [Example 9-58] | 0.00625 µM
CCn1cnc2cc(COC(=O)Nc3sc(-c4ccc(Cl)cc4OC)nc3C)ccc21 [Example 9-59] | 0.00625 µM
CCn1cnc2cc(COC(=O)Nc3sc(-c4ccc(C)cc4OC)nc3C)ccc21 [Example 9-60] | 0.00625 µM
CCn1cnc2cc(COC(=O)Nc3sc(-c4ccc(OC)cc4OC)nc3C)ccc21 [Example 9-61] | 0.00625 µM
CCn1cnc2cc(COC(=O)Nc3sc(-c4ccc(C)cc4C)nc3C)ccc21 [Example 9-62] | 0.00625 µM
CCn1cnc2cc(COC(=O)Nc3sc(-c4ccc(F)cc4C)nc3C)ccc21 [Example 9-63] | 0.00625 µM
CCn1cnc2cc(COC(=O)Nc3sc(-c4ccc(Cl)cc4C)nc3C)ccc21 [Example 9-64] | 0.00625 µM
CCCn1cnc2cc(COC(=O)Nc3sc(-c4ccccc4OC)nc3C)ccc21 [Example 9-66] | 1 µM
CCCn1cnc2cc(COC(=O)Nc3sc(-c4ccc(Cl)cc4OC)nc3C)ccc21 [Example 9-67] | 0.025 µM
CCCn1cnc2cc(COC(=O)Nc3sc(-c4ccc(C)cc4OC)nc3C)ccc21 [Example 9-68] | 0.1 µM
CCCn1cnc2cc(COC(=O)Nc3sc(-c4ccc(C)cc4C)nc3C)ccc21 [Example 9-69] | 1 µM
